# Measured values taken from patent publication US20110196383A1, “Atherosclerotic Plaque Dissolution Composition” (Atherolysis Medical, Inc, priority 2009, published 2011).
# “Also recorded” adds a separate entry of the source.
# Tested on: atherosclerotic plaque of an atherosclerotic cadaveric superficial femoral artery
# Assay: ex vivo dissolution of atherosclerotic plaque in cadaveric superficial femoral artery
# Set-up: species or system human
# Settings: for dissolution of atherosclerotic plaque: exposure about ten minutes to about thirty minutes
# [1] = about 2.5% by weight, about 97% base composition
# [2] = about 98% by weight in the chemical composition, about 2% base composition
# [3] = about 20% by weight, about 80% base composition such as normal saline
# [4] = about 99.9% by weight in the chemical composition, about 0.1% base composition
# [5] = about 90% by weight, about 10% base composition
compound,measurement,setting,value
O=C(O)[C@H](O)[C@@H](O)[C@H](O)[C@H](O)CO [gluconic acid],dissolution of atherosclerotic plaque,"about 80% by weight, about 20% base composition",dissolution of atherosclerotic plaque was noted
OCC(O)CO [glycerine],dissolution of atherosclerotic plaque,about 100% by weight in the chemical composition,showed effectiveness in dissolving atherosclerotic plaque; also recorded: dissolution of atherosclerotic plaque was noted
Cc1ccccc1 [toluene],dissolution of atherosclerotic plaque,"about 40% by weight, about 60% base composition",showed effectiveness in dissolving atherosclerotic plaque; also recorded: dissolution of atherosclerotic plaque was noted
Oc1ccc(/C=C\c2cc(O)cc(O)c2)cc1 [cis-resveratrol],dissolution of atherosclerotic plaque,[1],dissolution of atherosclerotic plaque was noted
C=C(C)[C@H]1CC=C(C)CC1 [d-limonene],dissolution of atherosclerotic plaque,[2],showed effectiveness in dissolving atherosclerotic plaque; also recorded: dissolution of atherosclerotic plaque was noted
"CC(=O)Oc1ccccc1C(=O)O [acetylsalicylic acid, reference compound]",dissolution of atherosclerotic plaque,"about 12% by weight in the chemical composition, about 88% base composition",showed effectiveness in dissolving atherosclerotic plaque; also recorded: dissolution of atherosclerotic plaque was noted
"CC(C)c1nc(N(C)S(C)(=O)=O)nc(-c2ccc(F)cc2)c1/C=C/[C@@H](O)C[C@@H](O)CC(=O)O [rosuvastatin, reference compound]",dissolution of atherosclerotic plaque,[3],dissolution of atherosclerotic plaque was noted
2-octane [Example 2-octane],dissolution of atherosclerotic plaque,[2],showed effectiveness in dissolving atherosclerotic plaque; also recorded: dissolution of atherosclerotic plaque was noted
CC(O)C(=O)O (centres unmarked) [lactic acid],dissolution of atherosclerotic plaque,[2],dissolution of atherosclerotic plaque was noted
CO [methanol],dissolution of atherosclerotic plaque,[4],showed effectiveness in dissolving atherosclerotic plaque; also recorded: dissolution of atherosclerotic plaque was noted
CC(O)CO (centres unmarked) [propylene glycol],dissolution of atherosclerotic plaque,[4],showed effectiveness in dissolving atherosclerotic plaque; also recorded: dissolution of atherosclerotic plaque was noted
ClCCl [dichloromethane],dissolution of atherosclerotic plaque,"about 92% by weight, about 8% base composition",showed effectiveness in dissolving atherosclerotic plaque
same,dissolution of atherosclerotic plaque,"about 99.1% by weight, about 0.9% base composition",dissolution of atherosclerotic plaque was noted
"O=C1[C@H](CC[C@H](O)c2ccc(F)cc2)[C@@H](c2ccc(O)cc2)N1c1ccc(F)cc1 [ezetimibe, reference compound]",dissolution of atherosclerotic plaque,[3],dissolution of atherosclerotic plaque was noted
CCO [ethanol],dissolution of atherosclerotic plaque,"about 94% by weight, about 6% base composition",dissolution of atherosclerotic plaque was noted
same,effectiveness in dissolving atherosclerotic plaque,concentration of about 94% to about 96%,showed effectiveness in dissolving atherosclerotic plaque
CCCCCCCCCCCC[N+](C)(C)CC(O)CS(=O)(=O)[O-] (centres unmarked) [lauryldimethyl hydroxysultaine],dissolution of atherosclerotic plaque,[5],dissolution of atherosclerotic plaque was noted
"Oc1ccc(/C=C/c2cc(O)cc(O)c2)cc1 [resveratrol, 3,5,4′-trihydroxy-trans-stilbene]",effectiveness in dissolving atherosclerotic plaque,dissolved in water or an organic solvent in a concentration of about 0.1% to about 99.9%,showed effectiveness in dissolving atherosclerotic plaque
ClC(Cl)Cl [chloroform],dissolution of atherosclerotic plaque,"about 95% by weight, about 5% base composition",showed effectiveness in dissolving atherosclerotic plaque; also recorded: dissolution of atherosclerotic plaque was noted
S=C=S [carbon disulfide],dissolution of atherosclerotic plaque,[5],showed effectiveness in dissolving atherosclerotic plaque; also recorded: dissolution of atherosclerotic plaque was noted
CC(=O)O [acetic acid],dissolution of atherosclerotic plaque,"about 50% by weight, about 50% base composition",dissolution of atherosclerotic plaque was noted
CCCCCCCC(=O)O [octanoic acid],dissolution of atherosclerotic plaque,[2],showed effectiveness in dissolving atherosclerotic plaque; also recorded: dissolution of atherosclerotic plaque was noted
Oc1ccc(/C=C/c2cc(O)cc(O)c2)cc1 [trans-resveratrol],dissolution of atherosclerotic plaque,[1],dissolution of atherosclerotic plaque was noted
